According to PMC9071444 (Nucleic Acids Research, 2022):
Entries after “also recorded” stand apart in the source; their conditions may differ. Where two headings read alike, the source gives them in different places.

Columns and labels:
TBEV-5 [1] = assay type: binding, tick-borne encephalitis virus
TBEV-5 [2] = assay type: binding, tick-borne encephalitis virus; remark: listed apart in the source
TBEV-5 [3] = assay type: binding, tick-borne encephalitis virus; remark: listed apart in the source
TBEV-5 [4] = assay type: binding, tick-borne encephalitis virus; remark: listed apart in the source
[5] = test system: Japanese encephalitis virus RdRp; assay type: biochemical
[6] = test system: SuperScript IV reverse transcriptase; assay type: biochemical
[7] = test system: RNA G4 derived from the Nipah virus and ZIKV genomes; conditions: cited from earlier work
[8] = test system: TBEV strains Neudoerfl and Hypr; test: microbe, parasite or virus in culture; assay type: cell-based, tick-borne encephalitis virus; conditions: for EC50: read-out: EC50
TBEV strain Neudoerfl [9] = test system: TBEV strain Neudoerfl
TBEV strain Hypr [10] = test system: TBEV strain Hypr
in vitro = conditions: pig
TBEV strain Neudoerfl [11] = test: microbe, parasite or virus in culture; conditions: Tick-borne encephalitis virus, 48 h
TBEV strain Hypr [12] = test: microbe, parasite or virus in culture; conditions: Tick-borne encephalitis virus, 48 h
ZIKV virus = conditions: 100 μM; cited from earlier work
[13] = test system: SuperScript IV reverse transcriptase; assay type: biochemical; remark: listed apart in the source
TBEV strain Hypr [14] = assay type: cell-based, tick-borne encephalitis virus
TBEV strain Neudoerfl [15] = assay type: cell-based, tick-borne encephalitis virus
TBEV strain Hypr [16] = assay type: cell-based, tick-borne encephalitis virus; remark: listed apart in the source
[17] = test system: Viral genome RNA from the TBEV strain Hypr; assay type: cell-based, tick-borne encephalitis virus
[18] = test system: TBEV strains Neudoerfl and Hypr; assay type: cell-based, tick-borne encephalitis virus
ZIKV NS2B-NS3 protease = conditions: cited from earlier work
ZIKV = conditions: cited from earlier work
[19] = biological target: Japanese encephalitis virus RdRp (Japanese encephalitis virus, UniProt P32886); assay type: biochemical
HCV RdRp = conditions: cited from earlier work
[20] = Tick-borne encephalitis virus, 48 h

Japanese encephalitis virus RdRp (Japanese encephalitis virus, UniProt P32886), sequence (P32886 2528-3432 limits assumed): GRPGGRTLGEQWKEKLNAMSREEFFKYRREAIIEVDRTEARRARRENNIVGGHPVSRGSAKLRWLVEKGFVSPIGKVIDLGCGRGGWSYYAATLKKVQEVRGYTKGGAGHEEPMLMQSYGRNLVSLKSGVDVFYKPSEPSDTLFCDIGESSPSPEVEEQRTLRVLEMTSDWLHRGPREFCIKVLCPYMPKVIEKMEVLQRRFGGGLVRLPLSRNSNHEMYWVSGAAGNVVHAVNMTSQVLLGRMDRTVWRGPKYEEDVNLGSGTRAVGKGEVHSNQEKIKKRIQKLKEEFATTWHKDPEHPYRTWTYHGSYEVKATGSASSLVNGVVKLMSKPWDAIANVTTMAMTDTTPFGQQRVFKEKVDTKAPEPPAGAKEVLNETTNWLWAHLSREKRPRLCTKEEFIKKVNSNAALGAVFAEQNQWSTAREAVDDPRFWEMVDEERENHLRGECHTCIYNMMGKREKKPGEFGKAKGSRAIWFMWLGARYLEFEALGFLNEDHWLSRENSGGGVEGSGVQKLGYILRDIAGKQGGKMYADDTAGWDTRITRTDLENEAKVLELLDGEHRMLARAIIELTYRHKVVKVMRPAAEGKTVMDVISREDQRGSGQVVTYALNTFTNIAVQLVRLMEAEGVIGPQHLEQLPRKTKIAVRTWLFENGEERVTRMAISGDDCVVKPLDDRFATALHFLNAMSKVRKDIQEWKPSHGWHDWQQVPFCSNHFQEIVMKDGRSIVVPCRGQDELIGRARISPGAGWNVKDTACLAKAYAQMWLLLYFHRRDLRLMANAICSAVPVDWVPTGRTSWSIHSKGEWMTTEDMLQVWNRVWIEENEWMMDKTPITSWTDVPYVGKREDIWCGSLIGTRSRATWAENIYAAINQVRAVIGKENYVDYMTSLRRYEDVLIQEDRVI

5,10,15,20-tetrakis-(N-methyl-4-pyridyl)porphine [TMPyP4]
Displacement of the probe (TO or ThT) (TBEV-5 [1]): ~100%
Binding of TBEV-5 (concentration for 50% TBEV-5 saturation) (TBEV-5 [2]): best binder
G4 specificity of binding (titration curves with TBEV-5 versus TBEV-5mut) (TBEV-5 [2]): bind non-specifically
Change of CD at 263 nm of TBEV-5 (TBEV-5 [3]): most pronounced
Increase in Tm of TBEV-5 G4 (TBEV-5 [4]): strong distortion of melting curves
RdRp activity relative to no-ligand control [5]: < 10%
Full product of reverse transcription relative to no-ligand control [6]: inhibits reverse transcriptase
CC50 (PS cells): > 50 µM
Interaction with RNA G4 [7]: specifically interact

O=C1c2cccc(O)c2C(=O)c2c(O)cc(CO)cc21 [Aloe emodin, aloe-emodin]
Displacement of ThT (TBEV-5 [1]): did not significantly displace
Increase in Tm of TBEV-5 G4 (TBEV-5 [4]): strong distortion of melting curves
Virus inhibition in initial screening [8]: no virus inhibition effects
SI (CC50/EC50) (TBEV strain Neudoerfl [9]): >1
SI (CC50/EC50) (TBEV strain Hypr [10]): >1
CC50 (in vitro): > 50 µM
EC50 (TBEV strain Neudoerfl [11]): > 50 µM
EC50 (TBEV strain Hypr [12]): > 50 µM

CN(C)c1ccc(Nc2c3ccc(NC(=O)CCN4CCCC4)cc3nc3cc(NC(=O)CCN4CCCC4)ccc23)cc1 [BRACO-19]
Increase in Tm of TBEV-5 G4 (TBEV-5 [4]): strong distortion of melting curves
Virus inhibition in initial screening [8]: no virus inhibition effects
CC50 (PS cells): > 50 µM
EC50 (TBEV strain Neudoerfl [9]): > 50 µM
SI (CC50/EC50) (TBEV strain Neudoerfl [9]): >1
EC50 (TBEV strain Hypr [10]): > 50 µM
SI (CC50/EC50) (TBEV strain Hypr [10]): >1
Effect on ZIKV virus titers (ZIKV virus): decrease ZIKV virus titers
Interaction with RNA G4 [7]: specifically interact

COc1ccc2cc3[n+](cc2c1OC)CCc1cc2c(cc1-3)OCO2 [Berberin, berberine]
Displacement of TO (TBEV-5 [1]): did not displace
Displacement of ThT (TBEV-5 [1]): around 50%
G4 specificity of binding (titration curves with TBEV-5 versus TBEV-5mut) (TBEV-5 [2]): specifically bind G4
Increase in Tm of TBEV-5 G4 (TBEV-5 [4]): up to 3.5 °C
Full product of reverse transcription relative to no-ligand control [6]: does not inhibit RT
Inhibition of RT [13]: did not inhibit RT
Course of anti-TBEV activity over time [8]: stable over time
EC50 [8, 20]: 1.2 to 2.9 µM
Reduction of numbers of viral RNA copies (TBEV strain Hypr [14]): about 40%
Reduction of numbers of viral RNA copies (TBEV strain Neudoerfl [15]): ~25%
Phase of the viral replication cycle in which the antiviral action takes effect (TBEV strain Hypr [16]): post-entry/fusion phase
Suppression of infectious viral particle formation [17]: partial
CC50 (in vitro): > 50 µM
EC50 (TBEV strain Neudoerfl [11]): 1.26 µM
EC50 (TBEV strain Hypr [12]): 1.57 µM

CN(C)c1ccc(C(=C2C=CC(=[N+](C)C)C=C2)c2ccc(N(C)C)cc2)cc1 [CV, crystal violet]
CC50 (PS cells; pig): < 1.6 µM

Cc1cnc(CNC(=O)c2c(=O)c3ccc(N4CCCN(C)CC4)nc3n3c2sc2ccccc23)cn1 [CX5461]
CC50 (PS cells; pig): 14.1 µM
Antiviral effect at the lowest non-cytotoxic concentration (TBEV strain Neudoerfl [9]): ^eNo antiviral effect was observed at the lowest non-cytotoxic concentration of 5 μM.
Antiviral effect at the lowest non-cytotoxic concentration (TBEV strain Hypr [10]): ^eNo antiviral effect was observed at the lowest non-cytotoxic concentration of 5 μM.

CCC1=C(C)c2cc3[nH]c(cc4nc(cc5c(CCC(=O)O)c(C)c(cc1n2)n5C)C(CCC(=O)O)=C4C)c(C)c3CC [NMM, N-Methylmesoporphyrin IX]
G4 specificity of binding (titration curves with TBEV-5 versus TBEV-5mut) (TBEV-5 [2]): specifically bind G4
Increase in Tm of TBEV-5 G4 (TBEV-5 [4]): up to 3.5 °C
Full product of reverse transcription relative to no-ligand control [6]: inhibits reverse transcriptase
Inhibition of RT [13]: did not inhibit RT
Concentration that completely suppressed TBEV replication [8]: 1.6 µM
Course of anti-TBEV activity over time [8]: stable over time
Effect on viral RNA copies [18]: complete inhibition of RNA synthesis
Phase of the viral replication cycle in which the antiviral action takes effect (TBEV strain Hypr [16]): prior to the entry/fusion steps
Viable viral particle formation [17]: no viable viral particle formation
CC50 (PS cells): > 50 µM
Cell morphology and monolayer cohesion (PS cells): observable changes in cell morphology and in mechanical monolayer cohesion
EC50 (TBEV strain Neudoerfl [9]): 0.01 µM
SI (CC50/EC50) (TBEV strain Neudoerfl [9]): >5000
EC50 (TBEV strain Hypr [10]): 0.02 µM
SI (CC50/EC50) (TBEV strain Hypr [10]): >2 500

NCCOc1cc(C(=O)Nc2cc(OCCN)c3ccccc3n2)nc(C(=O)Nc2cc(OCCN)c3ccccc3n2)c1 [PDS, Pyridostatin]
RdRp activity relative to no-ligand control [5]: < 10%
Inhibition of RT [13]: strong inhibitory effect
Course of anti-TBEV activity over time [8]: stable over time
EC50 [8, 20]: 1.2 to 2.9 µM
Phase of the viral replication cycle in which the antiviral action takes effect (TBEV strain Hypr [16]): post-entry/fusion phase
Suppression of infectious viral particle formation [17]: partial; also recorded: complete
Effect on ZIKV NS2B-NS3 protease (ZIKV NS2B-NS3 protease): reduces its catalytic activity
Phase of ZIKV cycle affected (ZIKV): replication period rather than entry
CC50 (in vitro): > 50 µM
EC50 (TBEV strain Neudoerfl [11]): 2.94 µM
EC50 (TBEV strain Hypr [12]): 1.29 µM

C[n+]1cc(NC(=O)c2ccc3ccc4ccc(C(=O)Nc5cc6ccccc6[n+](C)c5)nc4c3n2)cc2ccccc21 [PhenDC3]
Displacement of the probe (TO or ThT) (TBEV-5 [1]): ~100%
Change of CD at 263 nm of TBEV-5 (TBEV-5 [3]): most pronounced
Increase in Tm of TBEV-5 G4 (TBEV-5 [4]): strong distortion of melting curves
RdRp activity relative to no-ligand control [5]: < 10%
Inhibition of RdRp activity [19]: almost completely inhibits
Inhibition of RT [13]: strong inhibitory effect
Course of anti-TBEV activity over time [8]: gradually disappeared or dropped significantly
EC50 [8]: ~5 µM
Phase of the viral replication cycle in which the antiviral action takes effect (TBEV strain Hypr [16]): post-entry/fusion phase
CC50 (PS cells): > 50 µM
EC50 (TBEV strain Neudoerfl [9]): 5.77 µM
SI (CC50/EC50) (TBEV strain Neudoerfl [9]): >8.66
EC50 (TBEV strain Hypr [10]): 5.68 µM
SI (CC50/EC50) (TBEV strain Hypr [10]): >8.08
Effect on HCV RdRp (HCV RdRp): no significant effect

CN1C(=Cc2cc[n+](C)c3ccccc23)Sc2ccccc21 [TO, thiazole orange]
Displacement of ThT (TBEV-5 [1]): almost entirely displaces
G4 specificity of binding (titration curves with TBEV-5 versus TBEV-5mut) (TBEV-5 [2]): bind non-specifically
Change of CD at 263 nm of TBEV-5 (TBEV-5 [3]): most pronounced
Increase in Tm of TBEV-5 G4 (TBEV-5 [4]): strong distortion of melting curves
CC50 (PS cells): 1.8 µM

Cc1ccc2c(c1)sc(-c1ccc(N(C)C)cc1)[n+]2C [ThT, thioflavin T]
Displacement of TO (TBEV-5 [1]): does not displace
G4 specificity of binding (titration curves with TBEV-5 versus TBEV-5mut) (TBEV-5 [2]): specifically bind G4
Increase in Tm of TBEV-5 G4 (TBEV-5 [4]): up to 3.5 °C
CC50 (PS cells; pig): 10.6 µM
Antiviral effect at the lowest non-cytotoxic concentration (TBEV strain Neudoerfl [9]): ^eNo antiviral effect was observed at the lowest non-cytotoxic concentration of 5 μM.
Antiviral effect at the lowest non-cytotoxic concentration (TBEV strain Hypr [10]): ^eNo antiviral effect was observed at the lowest non-cytotoxic concentration of 5 μM.

NCCOc1cc(NC(=O)c2cc(OCc3cn(CCC(=O)O)nn3)cc(C(=O)Nc3cc(OCCN)c4ccccc4n3)n2)nc2ccccc12 [cPDS, Carboxy pyridostatin]
Increase in Tm of TBEV-5 G4 (TBEV-5 [4]): strong distortion of melting curves
RdRp activity relative to no-ligand control [5]: < 10%
Course of anti-TBEV activity over time [8]: gradually disappeared or dropped significantly
EC50 [8]: ~5 µM
Phase of the viral replication cycle in which the antiviral action takes effect (TBEV strain Hypr [16]): post-entry/fusion phase
CC50 (PS cells): > 50 µM
EC50 (TBEV strain Neudoerfl [9]): 4.45 µM
SI (CC50/EC50) (TBEV strain Neudoerfl [9]): >11.23
EC50 (TBEV strain Hypr [10]): 5.52 µM
SI (CC50/EC50) (TBEV strain Hypr [10]): >9.05
